Laboratory results taken from patent publication US20130178523A1, “ANTI-CANCER COMPOSITIONS AND METHODS” (THE PENN STATE RESEARCH FOUNDATION, priority 2007, published 2013).
Like-named read-outs stand apart in the source and are kept apart here.

Tests used:
[1] = system: T-98-G; experiment: MTS assay, glioblastoma cells; settings: Homo sapiens, T98G, 24 h
[2] = system: HT-1080; experiment: MTS assay, fibrosarcoma cells; settings: Homo sapiens, HT-1080, 24 h
[3] = system: Caco-2; experiment: MTS assay, colon cancer cells; settings: Homo sapiens, Caco-2, 24 h
[4] = system: MDA-MB-231; experiment: MTS assay, breast cancer cells; settings: Homo sapiens, MDA-MB-231, 24 h
[5] = system: WM115 melanoma cells; experiment: MTS cell viability assay, WM115; settings: Homo sapiens, WM-115, 24 h
[6] = system: PC-3; experiment: MTS assay, prostate cancer cells; settings: Homo sapiens, PC-3, 24 h
[7] = system: 1205 Lu melanoma cells; experiment: MTS cell viability assay, 1205 Lu; settings: Homo sapiens, 24 h
[8] = system: UACC 903 melanoma cells; experiment: MTS cell viability assay, UACC 903; settings: Homo sapiens, UACC-903, 24 h
[9] = system: UACC 903 melanoma cells; experiment: Tumor development in nude mice, subcutaneous UACC 903, i.p. treatment; settings: for melanoma tumor volume: 0.76 μmoles (3 ppm selenium) i.p. thrice per week, day 24, doses 3× lower than isothiocyanates; for tumor burden: UACC 903
[10] = system: UACC 903 cells; experiment: BrdU ELISA cellular proliferation; assay type: cell-based, human; settings: 24 hours; for proliferative potential with increasing concentrations: 5, 10, 15 μM
Protocol: Proliferation rate is measured using a BrdU ELISA kit (Roche Applied Sciences, Indianapolis, Ind.).
BrdUrd is used to label cells for 4-6 hours. At 15 μM concentration, ISC-4 and ISC-6 reduced UACC 903 cellular proliferative potential by ˜80-90% compared to controls. Results represent the average of 3 independent experiments; bars represent SEM. The average value is represented as the percentage of control DMSO treated cells.

[11] = system: UACC 903 cells; experiment: Apo-ONE caspase-3/7 apoptosis assay; assay type: cell-based, human; settings: 24 hours; for cellular apoptosis with increasing concentrations (caspase-3/7 activity, words): 5, 10, 15 μM
Protocol: Apoptosis rates are measured using an Apo-ONE Homogenous caspase-3/7 Assay kit (Promega Corporation, Madison, Wis.).
The isoselenocyanate compounds promote apoptosis in melanoma cells. […] The graphs in FIGS. 3A and 3B show fold increase in caspase-3/7 activity relative to DMSO vehicle treated cells on the x-axis. Results represent average of 3 independent experiments. Bars indicate SEM.

[12] = system: UACC 903 cells; experiment: Cell cycle analysis (propidium iodide, FACScan); settings: 24 hours
[13] = system: Akt signaling pathway; experiment: Western blot of Akt signaling pathway in cultured melanoma cells (FIG. 9); settings: 24 hours
[14] = system: 1205 Lu melanoma cells; experiment: Tumor development in nude mice, subcutaneous 1205 Lu, i.p. treatment; assay type: in vivo; settings: 0.76 μmoles i.p. thrice per week
From the text: (Monday, Wednesday and Friday).

[15] = Toxicity assessments in nude mice (blood parameters, histology); assay type: in vivo
From the text: Animals are sacrificed by CO2 asphyxiation and blood collected from each animal in plasma separator tubes with lithium heparin (BD Microtainer, BD, Franklin Lakes, N.J.) following cardiac puncture and analyzed for AST (aspartate aminotransferase), ALT, (alanyl aminotransferase), alkaline phosphatase, glucose and creatinine to ascertain liver, heart, kidney and pancreas related toxicity. For morphological examination of blood cells, whole blood is collected in microtainer tubes containing K2EDTA (BD Microtainer, BD, Franklin Lakes, N.J.) and RBC, WBC, lymphocytes, monocytes, eosinophils, platelets, total hemoglobin and hematocrit percentage analyzed. Blood is also microscopically examined for segregates, polychromatin bodies, and smudge cells. A portion of liver, heart, kidney, spleen, intestine pancreas and adrenal from each animal is formalin fixed and paraffin-embedded to examine toxicity-related changes in cell or organ morphology by H&E staining.

[16] = system: A549 (lung); experiment: IC-50 in various cell lines (Table V), A549; assay type: cell-based; settings: Homo sapiens
[17] = system: UACC-903 (Melanoma); experiment: IC-50 in various cell lines (Table V), UACC-903; assay type: cell-based; settings: Homo sapiens
[18] = system: 1205LU (Melanoma); experiment: IC-50 in various cell lines (Table V), 1205LU; assay type: cell-based; settings: Homo sapiens
[19] = system: CaCO2 (Colon Carcinoma); experiment: IC-50 in various cell lines (Table V), CaCO2; assay type: cell-based; settings: Homo sapiens, Caco-2
[20] = system: MDA-MB 231 (breast); experiment: IC-50 in various cell lines (Table V), MDA-MB 231; assay type: cell-based; settings: Homo sapiens
[21] = system: PC-3 (Prostate); experiment: IC-50 in various cell lines (Table V), PC-3; assay type: cell-based
[22] = system: HT1080 (Soft Tissue Sarcoma); experiment: IC-50 in various cell lines (Table V), HT1080; assay type: cell-based; settings: Homo sapiens, HT-1080
[23] = system: IGROV-1 (ovarian carcinoma); experiment: IC-50 in various cell lines (Table V), IGROV-1; assay type: cell-based; settings: Homo sapiens
[24] = system: FF2441 (fibroblast cells); experiment: IC-50 in various cell lines (Table V), FF2441; assay type: cell-based; settings: Homo sapiens
[25] = system: UACC 903M cells; experiment: IC50 of NAC conjugate in UACC 903M cells; assay type: cell-based
[26] = 0.76 μmoles i.p. thrice per week

Row | SMILES | IC50 [1] [µM] | IC50 [2] [µM] | IC50 [3] [µM] | IC50 [4] [µM] | IC50 [5] [µM] | IC50 [6] [µM] | IC50 [7] [µM] | IC50 [8] [µM] | G0/G1 cell population ([12]; 15 μM) | G2/M cell population ([12]; 15 μM) | S cell population ([12]; 15 μM) | subG0/G1 cell population ([12]; 15 μM) | further results
1 | S=C=NCc1ccccc1 [BITC, Benzyl isothiocyanate, reference compound] | > 100 | > 50 | 15 ± 2 | 42 ± 3 | 13 | > 50 | > 25 | 15 | – | – | – | – | effect on tumor size ([9]; 2.5 micromoles i.p. thrice per week, FIG. 18C): most effective
2 | [Se]=C=NCc1ccccc1 [ISC-1, Benzyl Isoselenocyanate] | 43 ± 4 | 13 ± 3 | 13 ± 3 | 29 ± 2 | > 25 | 24 ± 1 | > 25 | 16 | – | – | – | – | effect on tumor size ([9]; 0.76 μmoles i.p. thrice per week, Example 30): failed to show any effect
3 | [Se]=C=NCCc1ccccc1 [ISC-2, Phenylethyl Isoselenocyanate] | 24 ± 1 | 12 ± 3 | 11 ± 1 | 20 ± 3 | 8 | 16 ± 1 | 18 | 12 | – | – | – | – | melanoma tumor volume [9]: reduce tumor volume
4 | [Se]=C=NCCCCCCc1ccccc1 [ISC-6, Phenylhexyl Isoselenocyanate] | 23 ± 2 | 12 ± 1 | 10 ± 1 | 22 ± 2 | 7 | 14 ± 1 | 7 | 10 ± 1 | 41.6 | 26.1 | 32.2 | 15.9 | proliferative potential with increasing concentrations [10]: decreased proliferative potential; fold more effective than PBITC or PHITC at inhibiting cellular proliferation ([10]; 5-15 μM): ~2 fold; cellular apoptosis with increasing concentrations (caspase-3/7 activity, words) [11]: increase cellular apoptosis; fold more effective than PBITC at inducing apoptosis ([11]; caspase-3/7 activity, 5-15 μM): ~2 fold; G0/G1 cell population ([12]; 5 μM): 56.8; G2/M cell population ([12]; 5 μM): 13.5; S cell population ([12]; 5 μM): 31.5; subG0/G1 cell population ([12]; 5 μM): 1.5; G0/G1 cell population ([12]; 10 μM): 44.9; G2/M cell population ([12]; 10 μM): 24.5; S cell population ([12]; 10 μM): 30.5; subG0/G1 cell population ([12]; 10 μM): 7.6; melanoma tumor volume [9]: reduce tumor volume; concentration completely inhibiting the Akt3 pathway (Western blot) [13]: 10 µM
5 | S=C=NCCCCc1ccccc1 [PBITC, phenylbutylisothiocyanate, reference compound] | 35 ± 1 | 15 ± 1 | 27 ± 2 | 27 ± 2 | 7 ± 1 | 24 ± 2 | 19 ± 5 | 15 ± 1 | 42.1 | 27.4 | 30.5 | 20.8 | proliferative potential with increasing concentrations [10]: decreased proliferative potential; cellular apoptosis with increasing concentrations (caspase-3/7 activity, words) [11]: increase cellular apoptosis; tumor burden [14]: ineffective at reducing tumor burden; blood SGOT, SGPT, alkaline phosphatase, glucose and creatinine ([15]; 0.76 μmoles i.p. 3 times per week for 3 weeks, compared to vehicle DMSO): did not alter parameters; basal urea nitrogen (BUN), creatinine and glucose levels ([15]; treated versus control animals): not significantly different; G0/G1 cell population ([12]; 5 μM): 37.4; G2/M cell population ([12]; 5 μM): 34.7; S cell population ([12]; 5 μM): 27.8; subG0/G1 cell population ([12]; 5 μM): 4.9; G0/G1 cell population ([12]; 10 μM): 37.2; G2/M cell population ([12]; 10 μM): 31.9; S cell population ([12]; 10 μM): 30.9; subG0/G1 cell population ([12]; 10 μM): 10.4; tumor burden [9, 26]: ineffective at reducing tumor burden
6 | S=C=NCCc1ccccc1 [PEITC, phenylethyl isothiocyanate, reference compound] | > 100 | 15 ± 1 | 14 ± 2 | 38 ± 6 | 12 ± 1 | 24 ± 2 | 24 ± 2 | 12 ± 1 | – | – | – | – | –
7 | S=C=NCCCCCCc1ccccc1 [PHITC, Phenylhexylisothiocyanate] | 26 ± 2 | 29 ± 3 | 49 ± 9 | 24 ± 2 | 8 ± 1 | 17 ± 1 | 11 ± 4 | 15 ± 2 | 40.7 | 29.7 | 29.6 | 12.5 | proliferative potential with increasing concentrations [10]: decreased proliferative potential; cellular apoptosis with increasing concentrations (caspase-3/7 activity, words) [11]: increase cellular apoptosis; tumor burden [14]: ineffective at reducing tumor burden; G0/G1 cell population ([12]; 5 μM): 58.7; G2/M cell population ([12]; 5 μM): 13.1; S cell population ([12]; 5 μM): 28.2; subG0/G1 cell population ([12]; 5 μM): 1.4; G0/G1 cell population ([12]; 10 μM): 43.8; G2/M cell population ([12]; 10 μM): 27.5; S cell population ([12]; 10 μM): 28.7; subG0/G1 cell population ([12]; 10 μM): 5.4; tumor burden [9, 26]: ineffective at reducing tumor burden
8 | N#C[Se]CCCCCCc1ccccc1 [PHSC, Phenylhexyl selenocyanate] | – | – | – | – | – | – | – | – | 61.4 | 11.5 | 26.9 | 2.4 | –
9 | C[S+]([O-])CCCCN=C=[Se] (stereo not drawn) [SFN Iso Se, 1-isoselenocyanato-4-(methylsulfinyl)butane] | – | – | – | – | – | – | – | – | – | – | – | – | IC50 ([16]; A549): 35 ± 1.7 µM; IC50 ([17]; UACC-903): 17 ± 0.95 µM; IC50 ([18]; 1205Lu): 39.2 ± 2 µM; IC50 [19]: 16 ± 0.4 µM; IC50 ([20]; MDA-MB-231): 20 ± 0.46 µM; IC50 [21]: 24.8 ± 0.58 µM; IC50 [22]: 25.6 ± 1.82 µM; IC50 ([23]; IGROV-1): > 50 µM; IC50 ([24]; FF2441): > 50 µM; tumor development ([9]; 0.76 micromoles (3 ppm selenium) i.p., compared to controls, FIG. 14A): inhibition of tumor development
10 | C[S+]([O-])CCCCN=C=S (stereo not drawn) [SFN, sulforaphane, reference compound] | – | – | – | – | – | – | – | – | – | – | – | – | IC50 ([16]; A549 (lung), read-out: IC-50): 73 ± 3.6 µM; IC50 ([17]; UACC-903 (Melanoma), read-out: IC-50): 40 ± 0.89 µM; IC50 ([18]; 1205LU (Melanoma), read-out: IC-50): > 50 µM; IC50 ([19]; CaCO2 (Colon Carcinoma), read-out: IC-50): 48 ± 5.9 µM; IC50 ([20]; MDA-MB 231 (breast), read-out: IC-50): 57 ± 5 µM; IC50 ([21]; PC-3 (Prostate), read-out: IC-50): > 50 µM; IC50 ([22]; HT1080 (Soft Tissue Sarcoma), read-out: IC-50): > 50 µM; IC50 ([23]; IGROV-1 (ovarian carcinoma), read-out: IC-50): > 50 µM; IC50 ([24]; FF2441 (fibroblast cells), read-out: IC-50): > 50 µM
11 | CC(=O)NC(CSC(=[Se])NCCCCc1ccccc1)C(=O)O (stereo not drawn) [compound 5] | – | – | – | – | – | – | – | – | – | – | – | – | IC50 [25]: 17 ± 2 µM
